Source: ChEMBL document CHEMBL4359925, “Rational discovery of a highly novel and selective mTOR inhibitor” (Bioorg Med Chem Lett, 2019)
Activity calls are given as the source filed them. No cut-off for these calls is given here.

Key:
[1] = Half-life in rat at 93 mg/kg, po; format: ADME, organism-based; details: in vivo
[2] = Clearance in dog at 0.2 mg/kg, iv; format: ADME, organism-based, Canis lupus familiaris; details: in vivo
[3] = Tmax in rat at 100 mg/kg, po; format: ADME, organism-based; details: in vivo
[4] = Cmax in dog at 10 mg/kg, po; format: ADME, organism-based, Canis lupus familiaris; design: dose 10 mg/kg, route oral; details: in vivo
[5] = test system: NCI-H292; experiment: Additive antiproliferative activity against human NCI-H292 cells in presence of erlotinib; format: functional, cell-based
[6] = Cmax in mouse at 10.4 mg/kg, iv; format: ADME, organism-based; design: dose 10.4 mg/kg, route intravenous; details: in vivo
[7] = Half-life in rat at 83 mg/kg, po; format: ADME, organism-based; details: in vivo
[8] = Half-life in rat at 100 mg/kg, po; format: ADME, organism-based; details: in vivo
[9] = Cmax in rat at 83 mg/kg, po; format: ADME, organism-based; design: dose 83 mg/kg, route oral; details: in vivo
[10] = Tmax in rat at 4.9 mg/kg, po; format: ADME, organism-based; details: in vivo
[11] = Tmax in mouse at 26 mg/kg, po; format: ADME, organism-based; details: in vivo
[12] = Volume of distribution at steady state in rat at 0.8 mg/kg, iv; format: ADME, organism-based; details: in vivo, read-out: Vdss
[13] = Cmax in dog at 0.45 mg/kg, po; format: ADME, organism-based, Canis lupus familiaris; design: dose 0.45 mg/kg, route oral; details: in vivo
[14] = Half-life in rat at 3 mg/kg, po; format: ADME, organism-based; details: in vivo
[15] = test system: NCI-H1975; experiment: Additive antiproliferative activity against human NCI-H1975 cells harboring EGFR […]/T790M mutant in presence of gemcitabine; format: functional, cell-based
[16] = Tmax in rat at 30 mg/kg, po; format: ADME, organism-based; details: in vivo
[17] = test system: NCI-H1650; experiment: Additive antiproliferative activity against human NCI-H1650 cells harboring EGFR E746-A750del mutant in presence of gemcitabine; format: functional, cell-based
[18] = test system: NCI-H460; experiment: Synergistic antiproliferative activity against human H460 cells harboring LKB1 mutant in presence of erlotinib; format: functional, cell-based
[19] = test system: NCI-H1395; experiment: Additive antiproliferative activity against human NCI-H1395 cells harboring BRAF G469A in presence of gemcitabine; format: functional, cell-based
[20] = test system: NCI-H460; experiment: Synergistic antiproliferative activity against human H460 cells harboring KRAS […] mutant in presence of erlotinib
[21] = Cmax in rat at 100 mg/kg, po; format: ADME, organism-based; design: dose 100 mg/kg, route oral; details: in vivo
[22] = Half-life in mouse at 10.4 mg/kg, iv; format: ADME, organism-based; details: in vivo
[23] = test system: 786-0; experiment: Antitumour activity against human 786-O cells in xenograft model assessed as tumour growth inhibition at 30 mg/kg, qd; format: functional, organism-based
[24] = Cmax in mouse at 2.8 mg/kg, iv; format: ADME, organism-based; design: dose 2.8 mg/kg, route intravenous; details: in vivo
[25] = Tmax in rat at 83 mg/kg, po; format: ADME, organism-based; details: in vivo
[26] = Cmax in rat at 3 mg/kg, po; format: ADME, organism-based; design: dose 3 mg/kg, route oral; details: in vivo
[27] = Half-life in mouse at 26 mg/kg, po; format: ADME, organism-based; details: in vivo
[28] = test system: NCI-H1650; experiment: Antiproliferative activity against human NCI-H1650 cells; format: functional, cell-based
[29] = test system: NCI-H1975; experiment: Additive antiproliferative activity against human NCI-H1975 cells harboring EGFR […]/T790M mutant in presence of erlotinib; format: functional, cell-based
[30] = Cmax in mouse at 8.7 mg/kg, po; format: ADME, organism-based; design: dose 8.7 mg/kg, route oral; details: in vivo
[31] = Cmax in rat at 4.1 mg/kg, po; format: ADME, organism-based; design: dose 4.1 mg/kg, route oral; details: in vivo
[32] = Tmax in rat at 95 mg/kg, po; format: ADME, organism-based; details: in vivo
[33] = test system: A498; experiment: Antiproliferative activity against human A498; format: functional, cell-based
[34] = Tmax in rat at 160 mg/kg, po; format: ADME, organism-based; details: in vivo
[35] = Volume of distribution at steady state in dog at 0.2 mg/kg, iv; format: ADME, organism-based, Canis lupus familiaris; details: in vivo, read-out: Vdss
[36] = test system: MCF7; experiment: Antiproliferative activity against human MCF7; format: functional, cell-based
[37] = Tmax in rat at 3 mg/kg, po; format: ADME, organism-based; details: in vivo
[38] = test system: NCI-H929; experiment: Antiproliferative activity against human NCI-H929 cells; format: functional, cell-based
[39] = Cmax in rat at 4.9 mg/kg, po; format: ADME, organism-based; design: dose 4.9 mg/kg, route oral; details: in vivo
[40] = test system: NCI-H292; experiment: Additive antiproliferative activity against human NCI-H292 cells in presence of gemcitabine; format: functional, cell-based
[41] = test system: NCI-H1395; experiment: Antiproliferative activity against human NCI-H1395 cells; format: functional, cell-based
[42] = Half-life in rat at 160 mg/kg, po; format: ADME, organism-based; details: in vivo
[43] = Tmax in rat at 4.1 mg/kg, po; format: ADME, organism-based; details: in vivo
[44] = Half-life in rat at 4.9 mg/kg, po; format: ADME, organism-based; details: in vivo
[45] = test system: MIA PaCa-2; experiment: Antiproliferative activity against human MIAPaCa2 cells; format: functional, cell-based
[46] = Clearance in mouse at 10.4 mg/kg, iv; format: ADME, organism-based; details: in vivo
[47] = test system: NCI-H460; experiment: Synergistic antiproliferative activity against human H460 cells harboring LKB1 mutant in presence of gemcitabine; format: functional, cell-based

- half-life [1]: 1400 min
- clearance [2]: 3.3 mL/min/kg
- Tmax [3]: 4.7 to 14.7 h
- Cmax [4]: 549 ng/mL
- Cmax [6]: 17700 ng/mL
- half-life [7]: 324 min
- half-life [8]: 882 to 900 min
- Cmax [9]: 2370 ng/mL
- Tmax [10]: 3.3 h
- Tmax [11]: 6 h
- Vd [12]: 0.951 L/kg
- Cmax [13]: 250 ng/mL
- half-life [14]: 618 min
- Tmax [16]: 4 to 8 h
- Cmax [21]: 3670 to 6410 ng/mL
- half-life [22]: 120 min
- Cmax [24]: 6860 ng/mL
- Tmax [25]: 14 h
- Cmax [26]: 176 ng/mL
- half-life [27]: 552 min
- Cmax [30]: 5370 ng/mL
- Cmax [31]: 150 ng/mL
- Tmax [32]: 13.3 h
- Tmax [34]: 10 h
- Vd [35]: 1.12 L/kg
- Tmax [37]: 6.7 h
- Cmax [39]: 1190 ng/mL
- half-life [42]: 1280 min
- Tmax [43]: 4 h
- half-life [44]: 330 min
- clearance [46]: 4 mL/min/kg
SMILES: CC(F)(F)CN1C(=O)[C@]2(C)COCCN2c2nc(-c3ccc(NC(=O)NC4CC4)cc3)ncc21
- Activity [5]: Active
- Activity [15]: Active
- Activity [17]: Active
- Activity [18]: Active
- Activity [19]: Active
- Activity [20]: Active
- TGI [23]: Active
- Activity [28]: Active
- Activity [29]: Active
- Activity [33]: Active
- Activity [36]: Active
- Activity [38]: Active
- Activity [40]: Active
- Activity [41]: Active
- Activity [45]: Active
- Activity [47]: Active
